Source: US20250325503A1, “NEW USE OF N,N-BIS-2-MERCAPTOETHYL ISOPHTHALAMIDE” (EMERAMED LIMITED, priority 2016, published 2025)

How the values were obtained:
human TRPA1 = test: Ratiometric calcium imaging of NAPQI activation of TRPA1 in HEK 293 cells; assay type: cell-based; settings: 7 μM NAPQI; for inhibition of the activation of the receptor (TRPA1) by NAPQI: 4 μM test substance, HEK 293 cells expressing human TRPA1, FIG. 1
Procedure: The calcium ion channel TRPA 1 is activated by NAPQI. This activation may be determined by ratiometric calcium imaging.
HEK 293 cells expressing human TRPA1 were pre-incubated with 7 μM NAPQI and the calcium fluorophore FURA II. One experiment was run in the presence of 4 μM NBMI and the another was run in the presence of 4 μM NAC.

[1] = Clinical proof of concept study: paracetamol and cys-paracetamol in venous blood after 1 g paracetamol with or without NBMI; assay type: in vivo, human; settings: venous blood over eight hours
Procedure: A pilot clinical study was performed at the Lund Hospital Clinical Trial Unit, on three occasions.

[2] = system: paracetamol intoxicated mice; test: Paracetamol intoxicated mice study, oral paracetamol (ALT); assay type: in vivo
Procedure: (§1) The ratio of AST: ALT can also be relevant in humans; a value at or below 1 is considered to indicate toxicity.
20 minutes later, half of the mice (3) were administered vehicle (0.5% (w/v) carboxymethylcellulose 300-600 centipoises in water) only, half of the mice (3) received NBMI 100 mg/kg per os (NBMI dissolved in CMC as described below). […]

[3] = system: paracetamol intoxicated mice; test: Paracetamol intoxicated mice study, i.p. paracetamol (ALT, AST); assay type: in vivo; settings: paracetamol 300 mg/kg I.P., 24 hours
Procedure: In normal mice, the liver enzyme alanine transaminase (ALT) level is about 36-40 unit/L and the liver enzyme aspartate transaminase (AST) level is about 90 unit/L. […] The ratio of AST: ALT can also be relevant in humans; a value at or below 1 is considered to indicate toxicity. […] 30 minutes later, two (2) of the mice were administered vehicle only, two (2) received NAC 1200 mg/kg per os, two (2) received NBMI 200 mg/kg per os. The mice were sacrificed at 24 hours.

[4] = system: paracetamol intoxicated mice; test: NBMI versus vehicle in paracetamol intoxicated mice, i.p. paracetamol, synchronised oral dosing (AST, ALT); assay type: in vivo
Procedure: as §1
Mice were sacrificed at 24 hours after administration, following which levels of liver enzymes AST and ALT were measured.
In the NBMI-treated group, eleven (11) mice were treated.

[5] = Clinical trials of NBMI, adverse events; assay type: in vivo; settings: 4.5-9 mg/kg dose in humans
[6] = NBMI 200 mg/kg per os 30 minutes later
[7] = paracetamol 200 mg/kg i.p., synchronous oral NBMI 680 mg/kg in CMC, 24 hours
[8] = NAC 1200 mg/kg per os 30 minutes later

SMILES: O=C(NCCS)c1cccc(C(=O)NCCS)c1 [NBMI, N,N-bis-2-mercaptoethyl isophthalamide]
- inhibition of the activation of the receptor (TRPA1) by NAPQI (human TRPA1): almost completely inhibited
- decrease of area under the curve (AUC) of cys-paracetamol ([1]; 600 mg NBMI one hour prior to 1 g paracetamol): 23%
- decrease of area under the curve (AUC) of cys-paracetamol ([1]; 1,200 mg NBMI two hours before 1 g paracetamol): 73%
- median ALT level ([2]; paracetamol 700 mg/kg per os, NBMI 100 mg/kg per os 20 minutes later, sacrificed at 17 hours): 624 unit/L
- median ALT lower than the median of the intoxicated animals ([2]; po, 100 mg/kg): about 95%
- AST level (printed as ALT level) [3, 6]: 600 unit/L
- average ALT level [3, 6]: 984 unit/L
- AST/ALT ratio, average ([4]; 680 mg/kg, 24 h): 2.1
- ALT, average [4, 7]: 952 units/L
- AST, average [4, 7]: 753 units/L
- drug related adverse events [5]: no drug related adverse events

SMILES: CC(=O)N[C@@H](CS)C(=O)O [NAC, N-acetyl cysteine, reference compound]
- inhibition of the activation of the receptor (TRPA1) by NAPQI (human TRPA1): only partial inhibition
- AST level [3, 8]: 180 unit/L
- average ALT level [3, 8]: 55 unit/L

SMILES: CC(=O)N=C1C=CC(=O)C=C1 [NAPQI, N-acetyl-p-benzoquinone imine]
- receptor activation (human TRPA1; in the absence of NBMI or NAC): about 55%
